What was measured:
[1] = target: Tyrosine-protein kinase SYK (Homo sapiens, UniProt P43405); test: Inhibition of Enzymatic Syk Kinase Activity: 2.5 μL of 10% DMSO or compound in 10% DMSO was added to the wells in a 96 well V-bottom plate. Optimized concentration of in-house Syk enzyme (different batches of Syk (356-635) kinase domain) were used at optimized concentrations) ranging from 0.035 ng to 7.5 ng/reaction diluted in assay buffer was added to a total volume of 12.5 μL). Compound and protein were incubated for 30 minutes at room temperature on a plate shaker. Ten μL of a substrate mix containing 100 μM ATP (0.25 μL), γ-P32-ATP (0.1 μL; 10 μCi/μL), pG4T (0.25 μL; 10 mg/mL) and 1× assay buffer (9.4 μL) was added to all the wells. Samples were incubated at 30° C. for 10 minutes after mixing. The reaction was stopped by the addition of 8N HCl (13 μL) containing 100 mM ATP. Thirty μL of sample was transferred to the center of a 2×2 cm2 Whatman P81 chromatography paper. After allowing the sample to dry for one minute, the assay squares were washed 3 times for 5 minutes each in ortho-phosphoric acid (0.5%) and once in acetone. Assay squares were dried for 15 minutes in a 30° C. oven and transferred to 96 well optiplate. Microscint-O reagent (100 μL, Perkin Elmer) was added to each well, the plate was sealed with Topseal-A microplates and incubated for 10 minutes at room temperature at very low speed on rocker and the plate was read in the Topcount NXL instrument.
[2] = target: Tyrosine-protein kinase JAK2 (Homo sapiens, UniProt O60674); test: Inhibition of Enzymatic JAK2 Kinase Activity: Two μL of 10% DMSO in blank, substrate control and positive control wells and 2 μL of test compound in test wells was added. Thirteen μL of assay buffer in blank and substrate control wells and 13 μL of Enzyme buffer mix in positive and test wells was added. The reaction mixture was incubated for 30 minutes at RT on a plate shaker. Ultra Light-pGT substrate (5 μL) [poly Glu-Tyr (4:1) labeled with U Light TM dye, a tyrosine kinase substrate] and ATP mix was added to all wells. The reaction plate was incubated for 60 minutes at RT on a plate shaker. The reaction was stopped by adding 40 mM EDTA (10 μL) in buffer. Ten μL of antibody was added to all the wells.
Chain of Tyrosine-protein kinase JAK2 (O60674 whole entry): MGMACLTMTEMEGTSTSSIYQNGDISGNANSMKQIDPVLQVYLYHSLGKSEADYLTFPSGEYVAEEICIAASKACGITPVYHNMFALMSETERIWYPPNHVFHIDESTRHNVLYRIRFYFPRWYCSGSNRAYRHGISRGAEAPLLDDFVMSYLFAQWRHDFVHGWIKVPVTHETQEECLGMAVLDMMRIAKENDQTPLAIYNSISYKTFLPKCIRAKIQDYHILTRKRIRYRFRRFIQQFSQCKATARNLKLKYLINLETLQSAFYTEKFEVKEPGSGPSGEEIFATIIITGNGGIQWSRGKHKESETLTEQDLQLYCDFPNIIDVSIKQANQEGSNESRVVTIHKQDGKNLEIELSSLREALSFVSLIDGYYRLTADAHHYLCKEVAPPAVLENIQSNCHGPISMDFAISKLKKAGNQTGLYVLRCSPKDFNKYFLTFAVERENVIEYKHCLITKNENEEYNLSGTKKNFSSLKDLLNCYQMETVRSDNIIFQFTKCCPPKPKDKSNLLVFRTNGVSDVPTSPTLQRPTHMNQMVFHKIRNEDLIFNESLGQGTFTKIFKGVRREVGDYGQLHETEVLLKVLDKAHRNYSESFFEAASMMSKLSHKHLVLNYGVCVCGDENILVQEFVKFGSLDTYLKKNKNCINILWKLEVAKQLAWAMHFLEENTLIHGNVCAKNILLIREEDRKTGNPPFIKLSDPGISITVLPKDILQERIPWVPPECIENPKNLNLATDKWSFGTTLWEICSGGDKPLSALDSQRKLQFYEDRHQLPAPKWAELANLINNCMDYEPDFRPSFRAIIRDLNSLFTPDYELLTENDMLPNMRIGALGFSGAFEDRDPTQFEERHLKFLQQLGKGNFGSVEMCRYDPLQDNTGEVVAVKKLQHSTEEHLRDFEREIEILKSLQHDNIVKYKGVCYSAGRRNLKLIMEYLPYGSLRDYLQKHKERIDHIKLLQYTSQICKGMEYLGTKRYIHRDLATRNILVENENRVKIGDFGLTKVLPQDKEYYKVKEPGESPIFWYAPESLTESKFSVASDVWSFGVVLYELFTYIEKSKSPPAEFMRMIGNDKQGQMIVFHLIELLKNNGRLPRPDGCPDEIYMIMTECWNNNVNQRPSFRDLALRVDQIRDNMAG

Compound	IC50 [1]	IC50 [2]
CC(C)(Oc1ccc(Nc2nc(N3CCCCCC3)nc3cn[nH]c(=O)c23)cc1)C(=O)O	< 50 nM	< 10 nM
CC(C)(C#N)N1CCN(CCOc2ccc(Nc3nc(N4CCCCCC4)nc4cn[nH]c(=O)c34)cc2)CC1	< 50 nM	< 50 nM
CC(C)(CO)Oc1ccc(Nc2nc(N3CCC(CC#N)CC3)nc3cn[nH]c(=O)c23)cc1	< 50 nM	< 50 nM
O=C(O)CN1CCN(c2ccc(Nc3nc(N4CCCCCC4)nc4cn[nH]c(=O)c34)cc2)CC1	< 10 nM	< 10 nM
O=C1CC2(CCN(c3nc(Nc4ccc(CN5CCNCC5)cc4)c4c(=O)[nH]ncc4n3)CC2)CC(=O)N1	> 100 nM	
O=C(O)C1CC12CCN(c1ccc(Nc3nc(-c4ccc(F)cc4)nc4cn[nH]c(=O)c34)cc1)CC2 (stereo unspecified)	< 100 nM	< 50 nM
O=C(O)C1CC12CCC(c1ccc(Nc3nc(N4CCCCC4)nc4cn[nH]c(=O)c34)cc1)CC2 (stereo unspecified)	< 50 nM	< 50 nM
O=C(O)C1CC12CCC(c1ccc(Nc3nc(NC4CCCCC4)nc4cn[nH]c(=O)c34)cc1)CC2 (stereo unspecified)	< 50 nM	< 50 nM
CN(c1nc(Nc2ccc(N3CCC4(CC3)CC4C(=O)O)cc2)c2c(=O)[nH]ncc2n1)C1CCCCC1 (stereo unspecified)	< 50 nM	< 10 nM
O=c1[nH]ncc2nc(N3CCCCCC3)nc(Nc3ccc(OCCN4CCNCC4)cc3)c12	< 50 nM	
O=c1[nH]ncc2nc(N3CCCCCC3)nc(Nc3ccc(OCCN4CCCNCC4)cc3)c12	< 50 nM	< 10 nM
CC1CC(C)CN(c2nc(Nc3ccc(N4CCC(CC(=O)O)CC4)cc3)c3c(=O)[nH]ncc3n2)C1 (stereo unspecified)	< 50 nM	< 10 nM
CC(C)(O)C(=O)N1CCN(c2ccc(Nc3nc(N4CCC(CC#N)CC4)nc4cn[nH]c(=O)c34)cn2)CC1	< 50 nM	< 50 nM
COc1ccc(-c2nc(Nc3ccc(N4CCC5(CC4)CC5C(=O)O)cc3)c3c(=O)[nH]ncc3n2)cc1 (stereo unspecified)	< 100 nM	< 100 nM
N#CCC1CCN(c2nc(Nc3ccc(N4CCC(F)(F)CC4)cc3)c3c(=O)[nH]ncc3n2)CC1	< 50 nM	< 10 nM
CC(C)(C(N)=O)N1CCN(c2ccc(Nc3nc(N4CCCCCC4)nc4cn[nH]c(=O)c34)cc2)CC1	< 50 nM	< 10 nM
N#CCC1CCN(c2nc(Nc3ccc(N4CCCC(O)C4)nc3)c3c(=O)[nH]ncc3n2)CC1 (stereo unspecified)	< 50 nM	< 50 nM
N#CCC1CCN(c2nc(Nc3ccc(F)cc3)c3c(=O)[nH]ncc3n2)CC1	> 100 nM	
O=c1[nH]ncc2nc(N3CCCCC3)nc(Nc3ccc(OCCN4CCCNCC4)cc3)c12	< 50 nM	< 50 nM
COc1cc(Nc2nc(N3CCCCCC3)nc3cn[nH]c(=O)c23)cc(OC)c1	> 100 nM	

Source: ChEMBL document CHEMBL5726187, “Pyrimido-pyridazinone compounds and methods of use thereof” (2019)
